These results are taken from patent US20250025438A1, “Derivative of aspartic acid and use thereof in treatment of metabolic diseases such as hepatic fibrosis and non-alcoholic hepatitis” (SHENZHEN JINGTAI TECHNOLOGY CO., LTD., priority 2021, published 2025).

Counter-ions that a name gives are not always drawn.

Holding throughout (type): cell-based
In experiment [1] the test system is COL1A2. As to the kind of experiment: In vitro efficacy in semi-activated LX2 cells, qPCR: COL1A2. To be noted: Homo sapiens, 48 hours, Q-PCR, read-out: COL1A2 mRNA inhibition rate. Background: Quantitative PCR measures a nucleic acid by following its amplification.
Experiment [2] concerns TNF-α. The experiment can be described thus: In vitro efficacy in semi-activated LX2 cells, qPCR: TNF-α. To be noted: Homo sapiens, 48 hours, Q-PCR, read-out: TNF-α mRNA inhibition rate.
In experiment [3] the test system is Smad3. The experiment can be described thus: In vitro efficacy in semi-activated LX2 cells, qPCR: Smad3. The following applies: Homo sapiens, 48 hours, Q-PCR, read-out: Smad3 mRNA inhibition rate. An outline of the steps: (§1)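 LX-2 cells, 50 µM compound, 48 h; RNA extraction → RT → SYBR Green qPCR; fold change by relative quantification.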
The subject of experiment [4] is IL-1β. As to the kind of experiment: In vitro efficacy in semi-activated LX2 cells, qPCR: IL-1β. To be noted: Homo sapiens, 48 hours, Q-PCR, read-out: IL-1β mRNA inhibition rate.
The subject of experiment [5] is COL1A1. The experiment can be described thus: In vitro efficacy in semi-activated LX2 cells, qPCR: COL1A1. To be noted: Homo sapiens, 48 hours, Q-PCR, read-out: COL1A1 mRNA inhibition rate.
For experiment [6], the system named is COL3A1. As to the kind of experiment: In vitro efficacy in semi-activated LX2 cells, qPCR: COL3A1. The following applies: Homo sapiens, 48 hours, Q-PCR, read-out: COL3A1 mRNA inhibition rate.
The subject of experiment [7] is α-SMA. The experiment can be described thus: In vitro efficacy in semi-activated LX2 cells, qPCR: α-SMA. To be noted: test concentration 25 μM, 48 hours, Q-PCR, read-out: α-SMA mRNA inhibition rate. An outline of the steps:
as §1

The test system of experiment [8] is NS3TP1. The experiment can be described thus: Regulation of NS3TP1 in semi-activated LX2 cells, qPCR. To be noted: LX-2 cells, 48 hours, Q-PCR, vs control group. On the procedure: Test compounds were added to the LX-2 cells respectively, and total RNA in the cells was extracted 48 hours later. This experiment was performed strictly in accordance with the instructions of the Total RNA Kit. The steps were as follows (note: this experiment was performed on ice throughout the entire process, and special RNase-free tips were used throughout the entire process): • 1) The 12-well cell culture plate was taken out from the incubator, the cell culture medium was discarded, the cells were washed twice with 1 mL of 1×PBS, and a negative pressure suction device was used to fully remove PBS; • 2) 350 μL of TRK Lysis Buffer mixture/well was prepared as needed (mixture preparation method: 1 mL of TRKLysis Buffer+20 μL of β-mercaptoethanol), vortexed and mixed well. 350 μL was added to each well of the 12-well cell culture plate, and allowed to stand at room temperature for 5 minutes to fully lyse the cells; • 3) 70% ethanol/well was prepared as needed, vortexed and mixed well. 350 μL was added to each well of the 12-well cell culture plate, mixed well by shaking, and transferred to the spin column (spin column+collection tube were assembled); • 4) Centrifugation was performed at 4° C., 12000 g for 60 sec. The waste liquid was discarded after centrifugation, while the spin column was kept; • 5) 500 μL of RNA Wash Buffer I was added, centrifuged at 4° C., 12000 g for 60 sec, the waste liquid was discarded after centrifugation, and the collection column was kept; • 6) 500 μL of RNA Wash Buffer II (confirmed that ethanol had been added) was added, centrifuged at 4° C., 12000 g for 60 sec, the waste liquid was discarded after centrifugation, and the collection column was kept; • 7) step 6) was repeated once again, centrifugation was performed at 4° C., 12000 g for 90 sec, the waste liquid was discarded after centrifugation, and the collection column was kept; • 8) Centrifugation was performed at 4° C., 12000 g for 120 sec to ensure that the spin column was fully dried; • 9) The dried spin column was inserted into a new 1.5 mL EP tube, and 30 μL of DEPC water was added to the membrane in the center of the spin column. It should be careful not to touch the EP tube cover in this step. It was allowed to stand at room temperature for 5 minutes to ensure that the RNA was fully dissolved in DEPC water. Centrifugation was performed at 4° C., 12000 g for 60 sec, and the EP tube was kept; • 10) NanoDrop ultra-micro-volume spectrophotometer was used to detect RNA concentration;
5.2 Reverse transcription of RNA into cDNA: According to the instructions of PrimeScript™ RT reagent Kit (Perfect Real Time), the specific experimental steps were as follows:
5.3 Q-PCR detection of target gene expression: According to the instructions of Power SYBR® Green PCR Master Mix, the specific operations were as follows:
After the reaction was completed, the amplification curve and dissolution curve of Q-PCR were confirmed, and the relative quantification method ([…]) was used to perform data analysis on the experimental results.
LX2 cells were passaged and plated normally. […] After 48 hours, the cells were collected, total RNA was extracted, and the expression of NS3TP1 gene was detected using Q-PCR method.

Experiment [9] has as its system α-SMA. As to the kind of experiment: Activated LX2 cells (TGFβ1), Western blot: α-SMA. The following applies: LX2 cells stimulated with TGFβ1 (5 ng/mL), 24 hours, FIG. 4. In general terms: A western blot detects proteins with antibodies after separation by electrophoresis.
Experiment [10] has as its system collagen I. As to the kind of experiment: Activated LX2 cells (TGFβ1), Western blot: Collagen I. To be noted: LX2 cells stimulated with TGFβ1 (5 ng/mL), 24 hours, FIG. 4.
[11] abbreviates: LX-2, test concentration 12.5 μM.

What is called inhibition is the change of the read-out against control, counted positive when it falls.

Consider `CN[C@@H](CC(=O)O)C(=O)O` [Compound 3], for which the inhibition at 12.5 µM was 1 to 10% in [1] (setting [11]); 1 to 10% in [2] (setting [11]); 1 to 10% in experiment [3] (setting [11]); 1 to 10% in experiment [4] (setting [11]); 25 to 50% in experiment [5] (setting [11]); 1 to 10% in experiment [6] (setting [11]).
Turning to `C[S+]([O-])C[C@H](N)C(=O)O` (stereo partly shown) [Compound 45], the inhibition at 25 µM was in the range of 1 to 10% in experiment [1] (LX-2, test concentration 25 μM); 1 to 10% in experiment [2] (LX-2, test concentration 25 μM); 1 to 10% in [7]; 1 to 10% in experiment [3] (LX-2, test concentration 25 μM); 1 to 10% in experiment [4] (LX-2, test concentration 25 μM); 1 to 10% in [5] (LX-2, test concentration 25 μM). The inhibition at 25 µM in experiment [6] (LX-2, test concentration 25 μM) is 1 to 10%.
Take `COC(=O)C[C@H](N)C(=O)OCCOC(=O)[C@@H](N)CC(=O)OC` [Compound 77a, O′1,O1-(ethan-1,2-diyl)4-dimethyl (2S,2'S)-bis (2-aminosuccinate) hydrochloride]: the “Up-regulation of NS3TP1” value in experiment [8] (200 µM compound) is reported as “C (C represented that the up-regulation was 1~20%)”. Further, the “expression of α-SMA in the cells” value in experiment [9] is “significantly decreased”. Besides, the “expression of Collagen I in the cells” value in [10] is “significantly decreased”.
`COC(=O)C[C@H](N)C(=O)OCCOC(=O)C[C@H](N)C(=O)OC` [Compound 78a, 4-(2-(S)-2-amino-4-methoxy-4-oxobutyryl)ethyl)1-methyl L-aspartic acid ester hydrochloride]: the “Up-regulation of NS3TP1” value in experiment [8] (test concentration 12.5 μM) was “C (C represented that the up-regulation was 1~20%)”. In addition, the “expression of α-SMA in the cells” value in experiment [9] is recorded as “significantly decreased”. The “expression of Collagen I in the cells” value in [10] was “significantly decreased”.
